Measured values taken from US20030105595A1, “Chi square tests for gene expression” (priority 2001, published 2003).

Key:
Test in all cases: multi-sample expression analysis, band intensity
Format in all cases: in vivo
Settings in all cases: Pooled
band b1i0_51.7 = test system: band b1i0_51.7
Description: (§1) To practice the invention, one skilled in the art obtains a source of biological samples, as well as expression information about the biological samples, i.e., expression information relative to one or more genes or polypeptides encoded therein. Data is collected for a particular phenotype appearing within a given population under study, whereby expression of that phenotype is to be determined within the biological sample under study. The phenotype is correlated to a specific genotype, which is then represented as a band with a given intentity, thus indicative of gene expression levels, and is then compared to control samples. Alternatively, the response of a gene to dosage with one or more drugs is determined by band intensity. The standard deviation from the mean (StdDev) is calculated for the control samples, and is fit to functional form in the following equation: […]
(§2) A multi-sample expression analysis was run using the program described in Example 1. For each drug run, only runs for genes producing bands with a p-value<10^−5 in at least 2 of the following 3 comparisons were selected: low dose versus vehicle, high dose versus vehicle and low dose versus high dose. […] Since clusters found using all 13K bands included some of the best 2K bands, it was concluded that no essential signal was lost (see FIGS. 3 and 4). […] A comparison using the same analytic tests on only the best 2K bands. It can be seen that the Chi Square metric provides a better distinction between low and high doses than the correlation metric, which is not able to distinguish between the low dose and the high dose (see FIG. 6). The low-dose/high dose statistical variation is more pronounced when only the best 2K bands are selected.

band b1i0_53.0 = test system: band b1i0_53.0
Description: as §1, §2

band b1i0_54.5 = test system: band b1i0_54.5
Description: as §1, §2

band b1i0_57.4 = test system: band b1i0_57.4
Description: as §1, §2

band b1i0_60.7 = test system: band b1i0_60.7
Description: as §1, §2

band b1i0_62.5 = test system: band b1i0_62.5
Description: as §1, §2

band b1i0_63.7 = test system: band b1i0_63.7
Description: as §1, §2

band b1i0_69.4 = test system: band b1i0_69.4
Description: as §1, §2

Compound: S=C=Nc1cccc2ccccc12 [ANIT]
- band intensity b1i0_51.7 (band b1i0_51.7; High dose, 1d): 23.54
- band intensity b1i0_51.7 (band b1i0_51.7; High dose, 3d): 30.1
- band intensity b1i0_51.7 (band b1i0_51.7; High dose, 7d): 21.57
- band intensity b1i0_51.7 (band b1i0_51.7; Low dose, 1d): 30.7
- band intensity b1i0_51.7 (band b1i0_51.7; Low dose, 3d): 22.37
- band intensity b1i0_51.7 (band b1i0_51.7; Low dose, 7d): 20.67
- band intensity b1i0_51.7 (band b1i0_51.7; Low dose, 14d): 82
- band intensity b1i0_53.0 (band b1i0_53.0; High dose, 1d): 99.5
- band intensity b1i0_53.0 (band b1i0_53.0; High dose, 3d): 84.16
- band intensity b1i0_53.0 (band b1i0_53.0; High dose, 7d): 106.3
- band intensity b1i0_53.0 (band b1i0_53.0; Low dose, 1d): 121.8
- band intensity b1i0_53.0 (band b1i0_53.0; Low dose, 3d): 45.02
- band intensity b1i0_53.0 (band b1i0_53.0; Low dose, 7d): 108.1
- band intensity b1i0_53.0 (band b1i0_53.0; Low dose, 14d): 54.67
- band intensity b1i0_54.5 (band b1i0_54.5; High dose, 1d): 102.2
- band intensity b1i0_54.5 (band b1i0_54.5; High dose, 3d): 114.2
- band intensity b1i0_54.5 (band b1i0_54.5; High dose, 7d): 95.67
- band intensity b1i0_54.5 (band b1i0_54.5; Low dose, 1d): 105.3
- band intensity b1i0_54.5 (band b1i0_54.5; Low dose, 3d): 111.3
- band intensity b1i0_54.5 (band b1i0_54.5; Low dose, 7d): 88.17
- band intensity b1i0_54.5 (band b1i0_54.5; Low dose, 14d): 33.49
- band intensity b1i0_57.4 (band b1i0_57.4; High dose, 1d): 1272
- band intensity b1i0_57.4 (band b1i0_57.4; High dose, 3d): 712.4
- band intensity b1i0_57.4 (band b1i0_57.4; High dose, 7d): 685.8
- band intensity b1i0_57.4 (band b1i0_57.4; Low dose, 1d): 1209.0048
- band intensity b1i0_57.4 (band b1i0_57.4; Low dose, 3d): 1266
- band intensity b1i0_57.4 (band b1i0_57.4; Low dose, 7d): 1303
- band intensity b1i0_57.4 (band b1i0_57.4; Low dose, 14d): 810.7
- band intensity b1i0_60.7 (band b1i0_60.7; High dose, 1d): 74.32
- band intensity b1i0_60.7 (band b1i0_60.7; High dose, 3d): 74.89
- band intensity b1i0_60.7 (band b1i0_60.7; High dose, 7d): 72.63
- band intensity b1i0_60.7 (band b1i0_60.7; Low dose, 1d): 87.08
- band intensity b1i0_60.7 (band b1i0_60.7; Low dose, 3d): 67.38
- band intensity b1i0_60.7 (band b1i0_60.7; Low dose, 7d): 75.42
- band intensity b1i0_60.7 (band b1i0_60.7; Low dose, 14d): 141.7
- band intensity b1i0_62.5 (band b1i0_62.5; High dose, 1d): 49.33
- band intensity b1i0_62.5 (band b1i0_62.5; High dose, 3d): 93.56
- band intensity b1i0_62.5 (band b1i0_62.5; High dose, 7d): 81.4
- band intensity b1i0_62.5 (band b1i0_62.5; Low dose, 1d): 68.44
- band intensity b1i0_62.5 (band b1i0_62.5; Low dose, 3d): 104.9
- band intensity b1i0_62.5 (band b1i0_62.5; Low dose, 7d): 91.61
- band intensity b1i0_62.5 (band b1i0_62.5; Low dose, 14d): 249.3
- band intensity b1i0_63.7 (band b1i0_63.7; High dose, 1d): 50.09
- band intensity b1i0_63.7 (band b1i0_63.7; High dose, 3d): 0.01399
- band intensity b1i0_63.7 (band b1i0_63.7; High dose, 7d): 147.9
- band intensity b1i0_63.7 (band b1i0_63.7; Low dose, 1d): 170.6
- band intensity b1i0_63.7 (band b1i0_63.7; Low dose, 3d): 7.245
- band intensity b1i0_63.7 (band b1i0_63.7; Low dose, 7d): 299.4
- band intensity b1i0_63.7 (band b1i0_63.7; Low dose, 14d): 9.845
- band intensity b1i0_69.4 (band b1i0_69.4; High dose, 1d): 208.6
- band intensity b1i0_69.4 (band b1i0_69.4; High dose, 3d): 284.1
- band intensity b1i0_69.4 (band b1i0_69.4; High dose, 7d): 271.2
- band intensity b1i0_69.4 (band b1i0_69.4; Low dose, 1d): 276.3
- band intensity b1i0_69.4 (band b1i0_69.4; Low dose, 3d): 370.5
- band intensity b1i0_69.4 (band b1i0_69.4; Low dose, 7d): 305.4
- band intensity b1i0_69.4 (band b1i0_69.4; Low dose, 14d): 748.9

Compound: O=NN(CCCl)C(=O)NCCCl [BCNU]
- band intensity b1i0_51.7 (band b1i0_51.7; High dose, 1d): 29.61
- band intensity b1i0_51.7 (band b1i0_51.7; High dose, 3d): 30.97
- band intensity b1i0_51.7 (band b1i0_51.7; Low dose, 1d): 24.27
- band intensity b1i0_51.7 (band b1i0_51.7; Low dose, 3d): 21.64
- band intensity b1i0_51.7 (band b1i0_51.7; Low dose, 7d): 19.76
- band intensity b1i0_53.0 (band b1i0_53.0; High dose, 1d): 110.8
- band intensity b1i0_53.0 (band b1i0_53.0; High dose, 3d): 118.4
- band intensity b1i0_53.0 (band b1i0_53.0; Low dose, 1d): 117.1
- band intensity b1i0_53.0 (band b1i0_53.0; Low dose, 3d): 98.96
- band intensity b1i0_53.0 (band b1i0_53.0; Low dose, 7d): 104.2
- band intensity b1i0_54.5 (band b1i0_54.5; High dose, 1d): 112.4
- band intensity b1i0_54.5 (band b1i0_54.5; High dose, 3d): 112.1
- band intensity b1i0_54.5 (band b1i0_54.5; Low dose, 1d): 102.8
- band intensity b1i0_54.5 (band b1i0_54.5; Low dose, 3d): 103.6
- band intensity b1i0_54.5 (band b1i0_54.5; Low dose, 7d): 108.2
- band intensity b1i0_57.4 (band b1i0_57.4; High dose, 1d): 1154
- band intensity b1i0_57.4 (band b1i0_57.4; High dose, 3d): 1296
- band intensity b1i0_57.4 (band b1i0_57.4; Low dose, 1d): 1235
- band intensity b1i0_57.4 (band b1i0_57.4; Low dose, 3d): 1367
- band intensity b1i0_57.4 (band b1i0_57.4; Low dose, 7d): 1345
- band intensity b1i0_60.7 (band b1i0_60.7; High dose, 1d): 78.55
- band intensity b1i0_60.7 (band b1i0_60.7; High dose, 3d): 115.4
- band intensity b1i0_60.7 (band b1i0_60.7; Low dose, 1d): 88.97
- band intensity b1i0_60.7 (band b1i0_60.7; Low dose, 3d): 80.09
- band intensity b1i0_60.7 (band b1i0_60.7; Low dose, 7d): 96.79
- band intensity b1i0_62.5 (band b1i0_62.5; High dose, 1d): 67.75
- band intensity b1i0_62.5 (band b1i0_62.5; High dose, 3d): 84.85
- band intensity b1i0_62.5 (band b1i0_62.5; Low dose, 1d): 69.48
- band intensity b1i0_62.5 (band b1i0_62.5; Low dose, 3d): 57.9
- band intensity b1i0_62.5 (band b1i0_62.5; Low dose, 7d): 82.58
- band intensity b1i0_63.7 (band b1i0_63.7; High dose, 1d): 98.18
- band intensity b1i0_63.7 (band b1i0_63.7; High dose, 3d): 115.1
- band intensity b1i0_63.7 (band b1i0_63.7; Low dose, 1d): 155.4
- band intensity b1i0_63.7 (band b1i0_63.7; Low dose, 3d): 104.2
- band intensity b1i0_63.7 (band b1i0_63.7; Low dose, 7d): 204.2
- band intensity b1i0_69.4 (band b1i0_69.4; High dose, 1d): 194.3
- band intensity b1i0_69.4 (band b1i0_69.4; High dose, 3d): 219.1
- band intensity b1i0_69.4 (band b1i0_69.4; Low dose, 1d): 254
- band intensity b1i0_69.4 (band b1i0_69.4; Low dose, 3d): 292.1
- band intensity b1i0_69.4 (band b1i0_69.4; Low dose, 7d): 325.1
